According to the supplement of paper PMC10307832:

Columns and labels:
Experiment in all cases: relative viability (nuclei count vs DMSO), 5 days (fraction); higher = more cells survive
[1] = compound: OCc1c[nH]c2ccccc12 [Indole-3-carbinol] + CS(=O)(=O)N1CCN(Cc2cc3nc(-c4cccc5[nH]ncc45)nc(N4CCOCC4)c3s2)CC1 [Pictilisib] (partner 1 µM)
Outline: (§1)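 Each reported value is a median over duplicate plates. It expresses relative viability: treated-well nuclei count divided by vehicle-well nuclei count. Lung cancer cell lines in 1536-well plates were dosed by pin tool a day after seeding, alone with one drug or with a fixed anchor-drug dose plus five library-drug doses (not always all listed) in √10 steps, and nuclei were counted after 5 days.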

[2] = compound: OCc1c[nH]c2ccccc12 [Indole-3-carbinol] + CS(=O)(=O)CCNCc1ccc(-c2ccc3ncnc(Nc4ccc(OCc5cccc(F)c5)c(Cl)c4)c3c2)o1 [Lapatinib] (partner 2 µM)
Outline: as §1

[3] = compound: OCc1c[nH]c2ccccc12 [Indole-3-carbinol] + COc1cc2c(Oc3ccc(NC(=O)C4(C(=O)Nc5ccc(F)cc5)CC4)cc3F)ccnc2cc1OCCCN1CCOCC1 [Foretinib] (partner 0.25 µM)
Outline: as §1

[4] = compound: OCc1c[nH]c2ccccc12 [Indole-3-carbinol] + C[C@]1(O)C[C@@H](c2nc(-c3ccc4ccc(-c5ccccc5)nc4c3)c3c(N)nccn32)C1 [Linsitinib] (partner 1 µM)
Outline: as §1

[5] = compound: OCc1c[nH]c2ccccc12 [Indole-3-carbinol] + N=C(N)NC(=N)NCCc1ccccc1 [Phenformin] (partner 250 µM)
Outline: as §1

[6] = compound: OCc1c[nH]c2ccccc12 [Indole-3-carbinol] + O=C(c1cc(Cc2n[nH]c(=O)c3ccccc23)ccc1F)N1CCN(C(=O)C2CC2)CC1 [Olaparib] (partner 8 µM)
Outline: as §1

[7] = compound: OCc1c[nH]c2ccccc12 [Indole-3-carbinol] + CC1(C)CCC(c2ccc(Cl)cc2)=C(CN2CCN(c3ccc(C(=O)NS(=O)(=O)c4ccc(N[C@H](CCN5CCOCC5)CSc5ccccc5)c(S(=O)(=O)C(F)(F)F)c4)cc3)CC2)C1 [Navitoclax] (partner 0.5 µM)
Outline: as §1

[8] = compound: OCc1c[nH]c2ccccc12 [Indole-3-carbinol] + Nc1ncn([C@H]2C[C@H](O)[C@@H](CO)O2)c(=O)n1 [Decitabine] (partner 2 µM)
Outline: as §1

[9] = compound: OCc1c[nH]c2ccccc12 [Indole-3-carbinol] + Cc1nc(NC(=O)N2CCC[C@H]2C(N)=O)sc1-c1ccnc(C(C)(C)C(F)(F)F)c1 [Alpelisib] (partner 2 µM)
Outline: as §1

[10] = compound: OCc1c[nH]c2ccccc12 [Indole-3-carbinol] + C[C@@H](Oc1cc(-c2cnn(C3CCNCC3)c2)cnc1N)c1c(Cl)ccc(F)c1Cl [Crizotinib] (partner 1 µM)
Outline: as §1

Indole-3-carbinol = compound: OCc1c[nH]c2ccccc12 [Indole-3-carbinol]
Outline: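 Viability here means nuclei in treated wells divided by nuclei in vehicle wells, reported as the median across plates. Only plates with control CV below 25% and at least one doubling passed. Lung cancer cell lines in 1536-well plates were exposed to five √10-spaced library-drug doses for 5 days and counted from 4× Hoechst images in MetaXpress.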

[11] = compound: OCc1c[nH]c2ccccc12 [Indole-3-carbinol] + CC(=O)Nc1cccc(-n2c(=O)n(C3CC3)c(=O)c3c(Nc4ccc(I)cc4F)n(C)c(=O)c(C)c32)c1 [Trametinib] (partner 0.02 µM)
Outline: as §1

[12] = compound: OCc1c[nH]c2ccccc12 [Indole-3-carbinol] + NC(=O)Nc1cc(-c2cccc(F)c2)sc1C(=O)N[C@H]1CCCNC1 [AZD7762] (partner 0.2 µM)
Outline: as §1

[13] = compound: OCc1c[nH]c2ccccc12 [Indole-3-carbinol] + COc1cccc2cc(-c3nc([C@H]4CC[C@H](C(=O)O)CC4)n4ncnc(N)c34)[nH]c12 [OSI-027] (partner 0.5 µM)
Outline: as §1

[14] = compound: OCc1c[nH]c2ccccc12 [Indole-3-carbinol] + Nc1nc2[nH]cc(CCc3ccc(C(=O)N[C@@H](CCC(=O)O)C(=O)O)cc3)c2c(=O)[nH]1 [Pemetrexed] (partner 0.2 µM)
Outline: as §1

[15] = compound: OCc1c[nH]c2ccccc12 [Indole-3-carbinol] + CC(=O)c1c(C)c2cnc(Nc3ccc(N4CCNCC4)cn3)nc2n(C2CCCC2)c1=O [Palbociclib] (partner 0.5 µM)
Outline: as §1

[16] = compound: OCc1c[nH]c2ccccc12 [Indole-3-carbinol] + O=C(CCCCCCC(=O)Nc1ccccc1)NO [Vorinostat] (partner 1 µM)
Outline: as §1

[17] = compound: OCc1c[nH]c2ccccc12 [Indole-3-carbinol] + Cc1cc(Nc2cc(N3CCN(C)CC3)nc(Sc3ccc(NC(=O)C4CC4)cc3)n2)n[nH]1 [Tozasertib] (partner 0.1 µM)
Outline: as §1

[18] = compound: OCc1c[nH]c2ccccc12 [Indole-3-carbinol] + CC(C)C[C@H](NC(=O)[C@H](Cc1ccccc1)NC(=O)c1cnccn1)B(O)O [Bortezomib] (partner 0.002 µM)
Outline: as §1

A549 gave a relative viability ([1]; first compound 0.253 µM) of 0.493, a relative viability ([1]; first compound 0.8 µM) of 0.686 and a relative viability ([1]; first compound 2.53 µM) of 0.555. The relative viability ([1]; first compound 8 µM) was 0.456, the relative viability ([2]; first compound 0.253 µM) was 0.952 and the relative viability ([2]; first compound 0.8 µM) was 1.11. It also gave a relative viability ([2]; first compound 2.53 µM) of 0.995, a relative viability ([2]; first compound 8 µM) of 0.938 and a relative viability ([3]; first compound 0.253 µM) of 0.968. It also gave a relative viability ([3]; first compound 0.8 µM) of 1.04, a relative viability ([3]; first compound 2.53 µM) of 0.911 and a relative viability ([3]; first compound 8 µM) of 0.965. The relative viability ([4]; first compound 0.253 µM) was 0.656, the relative viability ([4]; first compound 0.8 µM) was 0.578 and the relative viability ([4]; first compound 2.53 µM) was 0.697. The relative viability ([4]; first compound 8 µM) was 0.545, the relative viability ([5]; first compound 0.253 µM) was 0.18 and the relative viability ([5]; first compound 0.8 µM) was 0.226. It also gave a relative viability ([5]; first compound 2.53 µM) of 0.254, a relative viability ([5]; first compound 8 µM) of 0.156 and a relative viability ([6]; first compound 0.253 µM) of 0.458. It also gave a relative viability ([6]; first compound 0.8 µM) of 0.413, a relative viability ([6]; first compound 2.53 µM) of 0.356 and a relative viability ([6]; first compound 8 µM) of 0.322. The relative viability ([7]; first compound 0.253 µM) was 1.16, the relative viability ([7]; first compound 0.8 µM) was 1.29 and the relative viability ([7]; first compound 2.53 µM) was 1.22. It also gave a relative viability ([7]; first compound 8 µM) of 1.17, a relative viability ([8]; first compound 0.253 µM) of 0.271 and a relative viability ([8]; first compound 0.8 µM) of 0.287. It also gave a relative viability ([8]; first compound 2.53 µM) of 0.272, a relative viability ([8]; first compound 8 µM) of 0.235 and a relative viability ([9]; first compound 0.253 µM) of 0.876. The relative viability ([9]; first compound 0.8 µM) was 0.842, the relative viability ([9]; first compound 2.53 µM) was 0.832 and the relative viability ([9]; first compound 8 µM) was 0.66. The relative viability ([10]; first compound 0.253 µM) was 0.712, the relative viability ([10]; first compound 0.8 µM) was 0.914 and the relative viability ([10]; first compound 2.53 µM) was 0.819. The relative viability ([10]; first compound 8 µM) was 0.765, the relative viability (Indole-3-carbinol; 0.253 µM) was 0.951 and the relative viability (Indole-3-carbinol; 0.8 µM) was 1.03. For the same cell line, the relative viability (Indole-3-carbinol; 2.53 µM) was 1.02 and the relative viability (Indole-3-carbinol; 8 µM) was 0.91.
In the case of NCI-H1648, the relative viability ([11]; first compound 0.253 µM) is reported as 0.486, the relative viability ([11]; first compound 0.8 µM) is reported as 0.423 and the relative viability ([11]; first compound 2.53 µM) is reported as 0.59. It also gave a relative viability ([11]; first compound 8 µM) of 0.521, a relative viability ([12]; first compound 0.253 µM) of 0.555 and a relative viability ([12]; first compound 0.8 µM) of 0.613. For the same cell line, the relative viability ([12]; first compound 2.53 µM) was 0.773, the relative viability ([12]; first compound 8 µM) was 0.637 and the relative viability ([13]; first compound 0.253 µM) was 0.258. The relative viability ([13]; first compound 0.8 µM) was 0.235, the relative viability ([13]; first compound 2.53 µM) was 0.272 and the relative viability ([13]; first compound 8 µM) was 0.242. The relative viability ([14]; first compound 0.253 µM) was 0.663, the relative viability ([14]; first compound 0.8 µM) was 0.745 and the relative viability ([14]; first compound 2.53 µM) was 0.822. It also gave a relative viability ([14]; first compound 8 µM) of 0.715, a relative viability ([6]; first compound 0.253 µM) of 1.27 and a relative viability ([6]; first compound 0.8 µM) of 0.69. It also gave a relative viability ([6]; first compound 2.53 µM) of 0.868, a relative viability ([6]; first compound 8 µM) of 0.572 and a relative viability ([8]; first compound 0.253 µM) of 0.482. It also gave a relative viability ([8]; first compound 0.8 µM) of 0.434, a relative viability ([8]; first compound 2.53 µM) of 0.598 and a relative viability ([8]; first compound 8 µM) of 0.499. It also gave a relative viability ([15]; first compound 0.253 µM) of 0.31, a relative viability ([15]; first compound 0.8 µM) of 0.248 and a relative viability ([15]; first compound 2.53 µM) of 0.296. The relative viability ([15]; first compound 8 µM) was 0.289, the relative viability ([16]; first compound 0.253 µM) was 0.301 and the relative viability ([16]; first compound 0.8 µM) was 0.825. For the same cell line, the relative viability ([16]; first compound 2.53 µM) was 0.333, the relative viability ([16]; first compound 8 µM) was 0.41 and the relative viability ([17]; first compound 0.253 µM) was 0.835. The relative viability ([17]; first compound 0.8 µM) was 0.488, the relative viability ([17]; first compound 2.53 µM) was 0.439 and the relative viability ([17]; first compound 8 µM) was 0.473. It also gave a relative viability (Indole-3-carbinol; 0.253 µM) of 1.07, a relative viability (Indole-3-carbinol; 0.8 µM) of 0.846 and a relative viability (Indole-3-carbinol; 2.53 µM) of 0.911. The relative viability (Indole-3-carbinol; 8 µM) was 0.949.
Work on EBC-1 yielded a relative viability ([1]; first compound 0.253 µM) of 0.359, a relative viability ([1]; first compound 0.8 µM) of 0.4 and a relative viability ([1]; first compound 2.53 µM) of 0.347. The relative viability ([1]; first compound 8 µM) was 0.364, the relative viability ([2]; first compound 0.253 µM) was 0.196 and the relative viability ([2]; first compound 0.8 µM) was 0.186. It also gave a relative viability ([2]; first compound 2.53 µM) of 0.228, a relative viability ([2]; first compound 8 µM) of 0.244 and a relative viability ([3]; first compound 0.253 µM) of 0.122. The relative viability ([3]; first compound 0.8 µM) was 0.0975, the relative viability ([3]; first compound 2.53 µM) was 0.1 and the relative viability ([3]; first compound 8 µM) was 0.102. The relative viability ([18]; first compound 0.253 µM) was 0.546, the relative viability ([18]; first compound 0.8 µM) was 0.541 and the relative viability ([18]; first compound 2.53 µM) was 0.628. For the same cell line, the relative viability ([18]; first compound 8 µM) was 0.477, the relative viability ([4]; first compound 0.253 µM) was 0.974 and the relative viability ([4]; first compound 0.8 µM) was 0.965. For the same cell line, the relative viability ([4]; first compound 2.53 µM) was 1.07, the relative viability ([4]; first compound 8 µM) was 0.71 and the relative viability ([6]; first compound 0.253 µM) was 0.684. It also gave a relative viability ([6]; first compound 0.8 µM) of 0.732, a relative viability ([6]; first compound 2.53 µM) of 0.631 and a relative viability ([6]; first compound 8 µM) of 0.566. For the same cell line, the relative viability ([7]; first compound 0.253 µM) was 0.355, the relative viability ([7]; first compound 0.8 µM) was 0.404 and the relative viability ([7]; first compound 2.53 µM) was 0.39. It also gave a relative viability ([7]; first compound 8 µM) of 0.415, a relative viability ([9]; first compound 0.253 µM) of 0.826 and a relative viability ([9]; first compound 0.8 µM) of 0.856. The relative viability ([9]; first compound 2.53 µM) was 0.83, the relative viability ([9]; first compound 8 µM) was 0.719 and the relative viability ([10]; first compound 0.253 µM) was 0.176. It also gave a relative viability ([10]; first compound 0.8 µM) of 0.188, a relative viability ([10]; first compound 2.53 µM) of 0.205 and a relative viability ([10]; first compound 8 µM) of 0.169. It also gave a relative viability (Indole-3-carbinol; 0.253 µM) of 0.938, a relative viability (Indole-3-carbinol; 0.8 µM) of 1.01 and a relative viability (Indole-3-carbinol; 2.53 µM) of 1.07. It also gave a relative viability (Indole-3-carbinol; 8 µM) of 0.871.
